The structures appear in SMILES notation. Counter-ions that a name gives are not always drawn.

Sequence of human full length recombinant Mps-1 kinase (P33981 whole entry): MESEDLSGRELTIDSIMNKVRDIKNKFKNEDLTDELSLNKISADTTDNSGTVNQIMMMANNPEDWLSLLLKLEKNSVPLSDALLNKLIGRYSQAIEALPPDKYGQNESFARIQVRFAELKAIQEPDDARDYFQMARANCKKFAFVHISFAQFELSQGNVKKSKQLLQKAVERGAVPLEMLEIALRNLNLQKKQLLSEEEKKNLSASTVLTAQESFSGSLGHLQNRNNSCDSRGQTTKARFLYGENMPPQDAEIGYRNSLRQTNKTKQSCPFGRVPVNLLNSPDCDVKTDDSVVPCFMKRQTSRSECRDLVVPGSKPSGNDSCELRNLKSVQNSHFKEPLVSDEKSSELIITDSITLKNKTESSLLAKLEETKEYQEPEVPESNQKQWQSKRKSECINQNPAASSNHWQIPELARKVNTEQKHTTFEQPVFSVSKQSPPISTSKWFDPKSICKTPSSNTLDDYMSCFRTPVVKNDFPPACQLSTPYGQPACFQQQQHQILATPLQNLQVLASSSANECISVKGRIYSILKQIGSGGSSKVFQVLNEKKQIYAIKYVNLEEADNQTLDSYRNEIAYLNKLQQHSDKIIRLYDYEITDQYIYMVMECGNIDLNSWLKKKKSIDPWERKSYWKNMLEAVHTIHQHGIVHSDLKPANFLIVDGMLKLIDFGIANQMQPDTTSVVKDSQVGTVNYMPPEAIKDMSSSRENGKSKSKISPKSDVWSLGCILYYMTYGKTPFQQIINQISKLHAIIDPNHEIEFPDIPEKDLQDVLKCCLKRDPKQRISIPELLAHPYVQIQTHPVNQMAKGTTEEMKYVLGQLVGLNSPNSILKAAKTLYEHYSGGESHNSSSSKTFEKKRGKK

This test concerns the target human full length recombinant Mps-1 kinase (Homo sapiens (Human), UniProt P33981). Put plainly: Mps-1 Kinase Assay (TR-FRET). Type of test: biochemical. As to conditions: 10 μM ATP, 1 μM biotinylated peptide substrate, 60 min at 22° C., read-out: Mps-1 Inhibition, IC50 in M. The method, then:
The human kinase Mps-1 phosphorylates a biotinylated substrate peptide. Detection of the phosphorylated product is achieved by time-resolved fluorescence resonance energy transfer (TR-FRET) from Europium-labelled anti-phospho-Serine/Threonine antibody as donor to streptavidin labelled with cross-linked allophycocyanin (SA-XLent) as acceptor. Compounds are tested for their inhibition of the kinase activity.
N-terminally GST-tagged human full length recombinant Mps-1 kinase (purchased from Invitrogen, Karslruhe, Germany, cat. no PV4071) was used. As substrate for the kinase reaction a biotinylated peptide of the amino-acid sequence […] (C-terminus in amide form, purchased from Biosynthan GmbH, Berlin) was used.
The concentration of Mps-1 in the assay was adjusted to the activity of the enzyme lot and was chosen appropriate to have the assay in the linear range, typical enzyme concentrations were in the range of about 1 nM (final conc. in the 5 μl assay volume).
The resulting mixture was incubated 1 h at 22° C. to allow the binding of the phosphorylated peptide to the anti-phospho(Ser/Thr)-Europium-antibody. Subsequently the amount of phosphorylated substrate was evaluated by measurement of the resonance energy transfer from the Europium-labelled anti-phospho(Ser/Thr) antibody to the Streptavidin-XLent.
(Time-resolved FRET reads energy transfer from a long-lived donor to a nearby acceptor.)
As to `COc1cc(C(=O)N2CCOCC2)ccc1Nc1nc2ccc(-c3ccc(NC(=O)CC4CC4)cc3)cn2n1` [Example 01.01, 2-cyclopropyl-N-[4-(2-{[2-methoxy-4-(morpholin-4-ylcarbonyl)phenyl]amino}[,2]-triazolo[1,5-a]pyridin-6-yl)phenyl]acetamide], the IC50 was 5.56 nM. `CCOc1cc(C(=O)N2CCOCC2)ccc1Nc1nc2ccc(-c3ccc(NC(=O)CC4CC4)cc3)cn2n1` [Example 01.02, 2-cyclopropyl-N-[4-(2-{[2-ethoxy-4-(morpholin-4-ylcarbonyl)phenyl]amino}[,2]-triazolo[1,5-a]pyridin-6-yl)phenyl]acetamide]: the IC50 was at most 1 nM.

Consider `COc1cc(N2CCN(C)CC2)ccc1Nc1nc2ccc(-c3ccc(NC(=O)CC4CC4)cc3)cn2n1` [Example 01.03, 2-cyclopropyl-N-[4-(2-{[2-methoxy-4-(4-methylpiperazin-1-yl)phenyl]amino}[,2]-triazolo[1,5-a]pyridin-6-yl)phenyl]acetamide trifluoroacetate], for which the IC50 is 6.02 nM. `CCOc1cc(C(=O)N2CCOCC2)ccc1Nc1nc2ccc(-c3ccc(NC(=O)Cc4ccc(F)cc4)cc3)cn2n1` [Example 02.02, N-[4-(2-{[2-ethoxy-4-(morpholin-4-ylcarbonyl)phenyl]amino}[,2]-triazolo[1,5-a]pyridin-6-yl)phenyl]-2-(4-fluorophenyl)acetamide]: the IC50 was at most 1 nM.

Regarding `COc1cc(C2=NC(C)(C)CO2)ccc1Nc1nc2ccc(-c3ccc(NC(=O)Cc4ccc(F)cc4)cc3)cn2n1` [Example 02.03, N-[4-(2-{[4-(4,4-dimethyl-4,5-dihydro-1,3-oxazol-2-yl)-2-methoxyphenyl]amino}[,2]-triazolo[1,5-a]pyridin-6-yl)phenyl]-2-(4-fluorophenyl)acetamide], the IC50 was 1.04 nM.

In the case of `COc1cc(C(=O)N2CCN(C)CC2)ccc1Nc1nc2ccc(-c3ccc(NC(=O)Cc4ccc(F)cc4)cc3)cn2n1` [Example 02.04, 2-(4-fluorophenyl)-N-{4-[2-({2-methoxy-4-[(4-methylpiperazin-1-yl)carbonyl]phenyl}amino)[,2]triazolo[1,5-a]pyridin-6-yl]phenyl}acetamide], the IC50 is at most 1 nM.

Consider `CCOc1cc(C(=O)N2CCN(C(=O)OC(C)(C)C)CC2)ccc1Nc1nc2ccc(-c3ccc(NC(=O)Cc4ccc(F)cc4)cc3)cn2n1` [Example 02.05, tert-butyl 4-(3-ethoxy-4-{[6-(4-{[(4-fluorophenyl)acetyl]amino}phenyl)[,2]triazolo[1,5-a]pyridin-2-yl]amino}benzoyl)piperazine-1-carboxylate], for which the IC50 is at most 1 nM.

With `CCOc1cc(C(=O)N2CCNCC2)ccc1Nc1nc2ccc(-c3ccc(NC(=O)Cc4ccc(F)cc4)cc3)cn2n1` [Example 02.06, N-[4-(2-{[2-ethoxy-4-(piperazin-1-ylcarbonyl)phenyl]amino}[,2]-triazolo[1,5-a]pyridin-6-yl)phenyl]-2-(4-fluorophenyl)acetamide], the IC50 is at most 1 nM. Under `CCOc1cc(C(=O)N2CCN(CC3CC3)CC2)ccc1Nc1nc2ccc(-c3ccc(NC(=O)Cc4ccc(F)cc4)cc3)cn2n1` [Example 02.07, N-(4-{2-[(4-{[4-(cyclopropylmethyl)piperazin-1-yl]carbonyl}-2-ethoxyphenyl)amino][,2]triazolo[1,5-a]pyridin-6-yl}phenyl)-2-(4-fluorophenyl)acetamide] stands at most 1 nM. `COc1cc(N2CCN(C)CC2)ccc1Nc1nc2ccc(-c3ccc(NC(=O)Cc4ccc(F)cc4)cc3)cn2n1` [Example 02.08, 2-(4-fluorophenyl)-N-[4-(2-{[2-methoxy-4-(4-methylpiperazin-1-yl)phenyl]amino}[,2]-triazolo[1,5-a]pyridin-6-yl)phenyl]acetamide trifluoroacetate]: the IC50 turned out to be 1.05 nM. As to `O=C(Cc1ccc(F)cc1)Nc1ccc(-c2ccc3nc(Nc4ccc(C(=O)N5CCOCC5)cc4OC(F)(F)F)nn3c2)cc1` [Example 02.10, 2-(4-fluorophenyl)-N-[4-(2-{[4-(morpholin-4-ylcarbonyl)-2-(trifluoromethoxy)phenyl]amino}[,2]-triazolo[1,5-a]pyridin-6-yl)phenyl]acetamide], the IC50 was at most 1 nM. The same measure for `CCOc1cc(N2CCOC2=O)ccc1Nc1nc2ccc(-c3ccc(NC(=O)Cc4ccc(F)cc4)cc3)cn2n1` [Example 02.12, N-[4-(2-{[2-ethoxy-4-(2-oxo-1,3-oxazolidin-3-yl)phenyl]amino}[,2]-triazolo[1,5-a]pyridin-6-yl)phenyl]-2-(4-fluorophenyl)acetamide]: at most 1 nM.

For the molecule `Cc1cc(N2CCOC2=O)ncc1Nc1nc2ccc(-c3ccc(NC(=O)Cc4ccc(F)cc4)cc3)cn2n1` [Example 02.13, 2-(4-fluorophenyl)-N-[4-(2-{[4-methyl-6-(2-oxo-1,3-oxazolidin-3-yl)pyridin-3-yl]amino}[,2]-triazolo[1,5-a]pyridin-6-yl)phenyl]acetamide], the IC50 was at most 1 nM. Take `COc1cc(C2=NCCO2)ccc1Nc1nc2ccc(-c3ccc(NC(=O)Cc4ccc(F)cc4)cc3)cn2n1` [Example 02.14, N-[4-(2-{[4-(4,5-dihydro-1,3-oxazol-2-yl)-2-methoxyphenyl]amino}[,2]-triazolo[1,5-a]pyridin-6-yl)phenyl]-2-(4-fluorophenyl)acetamide]: the 50% inhibitory concentration (IC50) was at most 1 nM. The same measure for `Cc1cc(C2=NCCO2)ccc1Nc1nc2ccc(-c3ccc(NC(=O)Cc4ccc(F)cc4)cc3)cn2n1` [Example 02.15, N-[4-(2-{[4-(4,5-dihydro-1,3-oxazol-2-yl)-2-methylphenyl]amino}[,2]triazolo[1,5-a]pyridin-6-yl)phenyl]-2-(4-fluorophenyl)acetamide]: at most 1 nM. For `COc1cc(C(=O)N2CCS(=O)(=O)CC2)ccc1Nc1nc2ccc(-c3ccc(NC(=O)Cc4ccc(F)cc4)cc3)cn2n1` [Example 02.18, N-{4-[2-({4-[(1,1-dioxidothiomorpholin-4-yl)carbonyl]-2-methoxyphenyl}amino)[,2]triazolo[1,5-a]pyridin-6-yl]phenyl}-2-(4-fluorophenyl)acetamide], the IC50 was at most 1 nM.

Turning to `COc1cc(C(=O)N2CC(O)C2)ccc1Nc1nc2ccc(-c3ccc(NC(=O)Cc4ccc(F)cc4)cc3)cn2n1` [Example 02.19, 2-(4-fluorophenyl)-N-{4-[2-({4-[(3-hydroxyazetidin-1-yl)carbonyl]-2-methoxyphenyl}amino)[,2]triazolo[1,5-a]pyridin-6-yl]phenyl}acetamide], the IC50 is at most 1 nM. Turning to `COc1cc(C(=O)N2CCC(O)CC2)ccc1Nc1nc2ccc(-c3ccc(NC(=O)Cc4ccc(F)cc4)cc3)cn2n1` [Example 02.20, 2-(4-fluorophenyl)-N-{4-[2-({4-[(4-hydroxypiperidin-1-yl)carbonyl]-2-methoxyphenyl}amino)[,2]triazolo[1,5-a]pyridin-6-yl]phenyl}acetamide], the IC50 is at most 1 nM. The same measure for `COc1cc(C(=O)NC2COC2)ccc1Nc1nc2ccc(-c3ccc(NC(=O)Cc4ccc(F)cc4)cc3)cn2n1` [Example 02.21, 4-{[6-(4-{[(4-fluorophenyl)acetyl]amino}phenyl)[,2]triazolo[1,5-a]pyridin-2-yl]amino}-3-methoxy-N-(oxetan-3-yl)benzamide]: at most 1 nM; for `COc1cc(C(=O)N2CCC2)ccc1Nc1nc2ccc(-c3ccc(NC(=O)Cc4ccc(F)cc4)cc3)cn2n1` [Example 02.22, N-[4-(2-{[4-(azetidin-1-ylcarbonyl)-2-methoxyphenyl]amino}[,2]-triazolo[1,5-a]pyridin-6-yl)phenyl]-2-(4-fluorophenyl)acetamide]: at most 1 nM; for `CCOc1cc(C(=O)N2CC3(COC3)C2)ccc1Nc1nc2ccc(-c3ccc(NC(=O)Cc4ccc(F)cc4)cc3)cn2n1` [Example 02.23, N-[4-(2-{[2-ethoxy-4-(2-oxa-6-azaspiro[3.3]hept-6-ylcarbonyl)phenyl]amino}[,2]triazolo[1,5-a]pyridin-6-yl)phenyl]-2-(4-fluorophenyl)acetamide]: at most 1 nM. Take `CCOc1cc(C(=O)N2CC(O)C2)ccc1Nc1nc2ccc(-c3ccc(NC(=O)Cc4ccc(F)cc4)cc3)cn2n1` [Example 02.24, N-{4-[2-({2-ethoxy-4-[(3-hydroxyazetidin-1-yl)carbonyl]phenyl}amino)[,2]triazolo[1,5-a]pyridin-6-yl]phenyl}-2-(4-fluorophenyl)acetamide]: the IC50 is at most 1 nM. Consider `CCOc1cc(C(=O)NC2CCN(C)CC2)ccc1Nc1nc2ccc(-c3ccc(NC(=O)Cc4ccc(F)cc4)cc3)cn2n1` [Example 02.25, 3-ethoxy-4-{[6-(4-{[(4-fluorophenyl)acetyl]amino}phenyl)[,2]-triazolo[1,5-a]pyridin-2-yl]amino}-N-(1-methylpiperidin-4-yl)benzamide], for which the IC50 is at most 1 nM. As for `O=C(Cc1ccc(F)cc1)Nc1ccc(-c2ccc3nc(Nc4ccc(C(=O)N5CC6(COC6)C5)cc4OCC(F)(F)F)nn3c2)cc1` [Example 02.26, 2-(4-fluorophenyl)-N-[4-(2-{[4-(2-oxa-6-azaspiro[3.3]hept-6-ylcarbonyl)-2-(2,2,2-trifluoroethoxy)phenyl]amino}[,2]triazolo[1,5-a]pyridin-6-yl)phenyl]acetamide], the IC50 was at most 1 nM. For `O=C(Cc1ccc(F)cc1)Nc1ccc(-c2ccc3nc(Nc4ccc(C(=O)N5CC(O)C5)cc4OCC(F)(F)F)nn3c2)cc1` [Example 02.27, 2-(4-fluorophenyl)-N-{4-[2-({4-[(3-hydroxyazetidin-1-yl)carbonyl]-2-(2,2,2-trifluoroethoxy)phenyl}amino)[,2]triazolo[1,5-a]pyridin-6-yl]phenyl}acetamide], the IC50 is at most 1 nM.

In general, IC50 refers to the concentration needed to halve the response being measured.
